In the supplement of paper PMC13380429:

What was measured:
Settings in all cases: 72 h
Caco-2 [1] = test: cell viability relative to DMSO; higher = less toxic
Calu-3 [2] = test: as above
HepG2 [3] = test: as above
U2OS [4] = test: as above
Vero E6 [5] = test: as above
Caco-2 [6] = test: relative viability EC50 (midpoint between 100% and the lowest measured viability); higher = less toxic
Calu-3 [7] = test: as above
HepG2 [8] = test: as above
U2OS [9] = test: as above
Vero E6 [10] = test: as above
Caco-2 [11] = test: drug sensitivity score (DSS) for viability; higher = more toxic; extreme values may be limits of the assay
Calu-3 [12] = test: as above
HepG2 [13] = test: as above
U2OS [14] = test: as above
Vero E6 [15] = test: as above

SMILES	cell viability (Caco-2 [1]; 1 nM) [%]	cell viability (Caco-2 [1]; 10 nM) [%]	cell viability (Caco-2 [1]; 100 nM) [%]	cell viability (Caco-2 [1]; 1000 nM) [%]	cell viability (Caco-2 [1]; 10000 nM) [%]	cell viability (Calu-3 [2]; 1 nM) [%]	cell viability (Calu-3 [2]; 10 nM) [%]	cell viability (Calu-3 [2]; 100 nM) [%]	cell viability (Calu-3 [2]; 1000 nM) [%]	cell viability (Calu-3 [2]; 10000 nM) [%]	cell viability (HepG2 [3]; 1 nM) [%]	cell viability (HepG2 [3]; 10 nM) [%]	cell viability (HepG2 [3]; 100 nM) [%]	cell viability (HepG2 [3]; 1000 nM) [%]	cell viability (HepG2 [3]; 10000 nM) [%]	cell viability (U2OS [4]; 1 nM) [%]	cell viability (U2OS [4]; 10 nM) [%]	cell viability (U2OS [4]; 100 nM) [%]	cell viability (U2OS [4]; 1000 nM) [%]	cell viability (U2OS [4]; 10000 nM) [%]	cell viability (Vero E6 [5]; 1 nM) [%]	cell viability (Vero E6 [5]; 10 nM) [%]	cell viability (Vero E6 [5]; 100 nM) [%]	cell viability (Vero E6 [5]; 1000 nM) [%]	cell viability (Vero E6 [5]; 10000 nM) [%]	relative viability EC50 (Caco-2 [6]) [µM]	relative viability EC50 (Calu-3 [7]) [µM]	relative viability EC50 (HepG2 [8]) [µM]	relative viability EC50 (U2OS [9]) [µM]	relative viability EC50 (Vero E6 [10]) [µM]	drug sensitivity score (Caco-2 [11])	drug sensitivity score (Calu-3 [12])	drug sensitivity score (HepG2 [13])	drug sensitivity score (U2OS [14])	drug sensitivity score (Vero E6 [15])
O=c1cc(N2CCOCC2)oc2c(-c3ccccc3)cccc12	109	94.9	89	96.5	81.9	98	93.7	97.4	98.2	76.5	93.5	101	110	105	86.1	97.5	95	94.2	97.8	92.3	99.8	97.4	96.1	92.4	77.1	> 10	> 10	> 10	> 10	> 10	0.6	1.1	0.1	0	1.3
c1ccc(CCCN2CCN(CCOC(c3ccccc3)c3ccccc3)CC2)cc1	104	95	94.4	92.9	85.6	102	98.4	103	95.9	99.7	92.4	91.6	99.2	99.7	85.1	101	97	100	98.1	97.8	114	104	106	96.5	95.9	> 10	> 10	> 10	> 10	> 10	0.3	0	0.2	0	0
CC(C)NC[C@@H](O)c1ccc(O)c(O)c1 (racemic) [isoprenaline]	96.5	90	89	92.9	93.9	93.6	104	94.4	92.3	98.2	109	98.6	96.5	100	101	96.8	98.9	95.5	99.7	103	101	97.6	101	107	79.8	> 10	> 10	> 10	> 10	> 10	0	0	0	0	0.4
BrC1C(Br)C(Br)C(Br)C(Br)C1Br (stereo not given) [1,2,3,4,5,6-hexabromocyclohexane]	96.4	93.6	97.3	102	98.4	106	104	104	87.3	105	95.8	106	89.1	99.8	90.2	99.1	96.4	101	95.1	101	99.7	107	101	105	93.9	> 10	> 10	> 10	> 10	> 10	0	0	0	0	0
CCN1CCCC1=O [1-ethyl-2-pyrrolidone]	93.6	99.6	99.4	88	95.2	97.9	104	104	98.6	104	99.1	99.1	94	99.9	97.2	95.9	98.4	104	95.5	102	103	103	97	97.9	95.3	> 10	> 10	> 10	> 10	> 10	0	0	0	0	0
OC[C@H]1O[C@H](O)C[C@@H](O)[C@@H]1O [2-deoxyglucose]	102	66.9	105	86.9	101	108	98.9	111	100	95.5	93.2	96	97.3	106	97.4	100	102	101	99.4	98	93.4	102	90.6	100	110	> 10	> 10	> 10	> 10	> 10	0	0	0	0	0
O=C1CN=C(c2cccc(Br)c2)c2oc3ccccc3c2N1 [5-BDBD]	101	96.6	102	106	97	103	97.2	112	96.8	111	98.3	100	94.4	96.8	92.5	104	97.5	95.5	99.7	101	96.7	92.8	94.6	93.5	95.9	> 10	> 10	> 10	> 10	> 10	0	0	0	0	0
O=C(O)c1cc(O)c2ccc(Cl)cc2n1 [7-chlorokynurenic-acid]	102	96.1	97.1	99.1	109	99.9	94.1	98.4	98	108	106	104	100	101	97	101	97.6	96.4	94.3	108	96.7	102	94.2	95.3	108	> 10	> 10	> 10	> 10	> 10	0	0	0	0	0
CCCN(C/C=C/I)[C@H]1CCc2ccc(O)cc2C1 [7-hydroxy-PIPAT]	99.8	110	104	108	101	111	97.3	90.5	102	105	102	104	97.8	101	98.4	98	96.7	101	103	98.3	102	104	103	103	96	> 10	> 10	> 10	> 10	> 10	0	0	0	0	0
O=C(O)c1ccccc1NC(=O)N1CCC(c2ccccc2C(F)(F)F)CC1 [A-1120]	100	93.2	98.4	96.8	84.2	102	96.5	100	94.1	106	88.2	96.1	107	103	108	104	104	102	100	98.7	101	100	93.1	95.4	93.5	> 10	> 10	> 10	> 10	> 10	0.6	0	0	0	0
Nc1ncnc2nc(-c3ccc(N4CCOCC4)nc3)cc(-c3cccc(Br)c3)c12 [ABT-702]	107	99.9	102	104	93.4	103	83.3	112	95.3	100	104	96.4	96.5	108	89.6	106	103	104	99.8	101	96.1	100	95.2	94.4	88.1	> 10	> 10	> 10	> 10	> 10	0	0	0	0	0
CC(=O)Nc1cccc2c1c(Sc1ccc(Cl)cc1)c(C)n2CC(=O)O [AZD1981]	102	105	91.6	102	103	102	96	89.7	94.3	96.2	100	103	105	99.8	97.9	94.6	102	94.3	101	97.6	98.6	98.1	97.4	97.4	94.4	> 10	> 10	> 10	> 10	> 10	0	0	0	0	0
C[C@@H]1Cc2c([nH]c3ccccc23)[C@@H](c2c(F)cc(/C=C/C(=O)O)cc2F)N1CC(C)(C)F [AZD9496]	94.2	104	99.6	94.7	93.5	97.1	91.7	90.8	93.6	105	103	90	104	98.8	97.5	98.8	100	99	102	98.9	102	100	104	101	91.7	> 10	> 10	> 10	> 10	> 10	0	0	0	0	0
CCOC(=O)c1c[nH]cn1 [C-751]	88.6	91.6	96.4	98.3	90.4	100	97.2	90.3	92.9	104	104	99.6	95.6	93.1	109	100	100	94.6	102	93	99.5	96.7	99.6	92.6	100	> 10	> 10	> 10	> 10	> 10	0	0	0	0	0
CCN1C(=O)CNc2ncc(-c3ccc(-c4nc[nH]n4)nc3C)nc21 [CC-115]	94.7	96.4	89.2	39.8	20.5	106	92	91.9	37.3	21.6	108	102	105	57.2	25.1	100	102	99.6	59.4	6.6	108	103	103	64.4	24.8	0.411	0.4	0.894	1.11	1.04	12.7	12.8	9.3	10.5	8.7
